Measured values taken from patent publication US20100267561A1, “HERBICIDAL PYRIDAZINONE DERIVATIVES” (priority 2007, published 2010).

Tests used:
Type in all cases: in vivo
rice (Oryza sativa) = test: Test B flooded paddy test plant response
Outline: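 Compounds were added directly to paddy water over 2-leaf-stage plants in pots flooded 3 cm above soil, water depth maintained. Visual injury scored against controls after 13 to 15 days in greenhouse, 0 (none) to 100 (complete control); dash indicates no result.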

[1] = tested on: cocklebur (Xanthium strumarium); test: Test B pre-/postemergence plant response
Outline: (§1)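 Visual scoring from 0 (no effect) to 100 (complete control) against untreated controls was done 13 to 15 days after greenhouse treatment. Chemicals were formulated in a surfactant-containing non-phytotoxic solvent and applied to soil preemergence or to 1- to 4-leaf (2-18 cm) plants postemergence.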

[2] = tested on: common (oilseed) sunflower (Helianthus annuus); test: Test B pre-/postemergence plant response; conditions: Preemergence
Outline: as §1

[3] = tested on: woolly cupgrass (Eriochloa villosa); test: Test B pre-/postemergence plant response
Outline: as §1

[4] = tested on: velvetleaf (Abutilon theophrasti); test: Test B pre-/postemergence plant response
Outline: as §1

soybean (Glycine max) = test: Test B pre-/postemergence plant response
Outline: as §1

[5] = tested on: green foxtail (Setaria viridis); test: Test B pre-/postemergence plant response
Outline: as §1

[6] = tested on: wheat (Triticum aestivum); test: Test B pre-/postemergence plant response
Outline: as §1

[7] = tested on: downy bromegrass (Bromus tectorum); test: Test B pre-/postemergence plant response
Outline: as §1

[8] = tested on: large crabgrass (Digitaria sanguinalis); test: Test B pre-/postemergence plant response
Outline: as §1

[9] = tested on: goosegrass (Eleusine indica); test: Test B pre-/postemergence plant response
Outline: as §1

[10] = tested on: pigweed (Amaranthus retroflexus); test: Test B pre-/postemergence plant response
Outline: as §1

[11] = tested on: catchweed bedstraw (Galium aparine); test: Test B pre-/postemergence plant response; conditions: Preemergence, scale 0 to 100
Outline: as §1

[12] = Postemergence, 31 g ai/ha, scale 0 to 100, 0 no effect, 100 complete control
[13] = Postemergence, 62 g ai/ha, scale 0 to 100
[14] = Postemergence, 125 g ai/ha, scale 0 to 100
[15] = Postemergence, 250 g ai/ha, scale 0 to 100
[16] = Preemergence, 31 g ai/ha, 0 to 100 scale, 0 no effect, 100 complete control
[17] = Preemergence, 62 g ai/ha, scale 0 to 100
[18] = Preemergence, 125 g ai/ha, scale 0 to 100
[19] = Preemergence, 250 g ai/ha, scale 0 to 100

Cc1cc(-c2ccc(Br)cc2)nn1-c1c(OC(=O)C2CC2)cnn(C)c1=O [Compound 5]
Plant response rating, Rice (rice (Oryza sativa); Flood (flooded paddy test), 62 g ai/ha, scale 0 to 100, 0 no effect, 100 complete control): 60
Plant response rating, Rice (rice (Oryza sativa); Flood (flooded paddy test), 125 g ai/ha, scale 0 to 100, 0 no effect, 100 complete control): 75
Plant response rating, Rice (rice (Oryza sativa); Flood (flooded paddy test), 250 g ai/ha, scale 0 to 100, 0 no effect, 100 complete control): 80
Plant response rating, Rice (rice (Oryza sativa); Flood, 31 g ai/ha, scale 0 to 100): 15
Plant response rating, Cocklebur [1, 12]: 0
Plant response rating, Cocklebur [1, 13]: 0
Plant response rating, Cocklebur [1, 14]: 0
Plant response rating, Cocklebur [1, 15]: 20
Plant response rating, Cocklebur [1, 16]: 0
Plant response rating, Cocklebur [1, 17]: 0
Plant response rating, Cocklebur [1, 18]: 0
Plant response rating, Sunflower ([2]; 31 g ai/ha, 0 to 100 scale, 0 no effect, 100 complete control): 0
Plant response rating, Sunflower ([2]; 62 g ai/ha, scale 0 to 100): 0
Plant response rating, Sunflower ([2]; 125 g ai/ha, scale 0 to 100): 0
Plant response rating, Sunflower ([2]; 250 g ai/ha, scale 0 to 100): 0
Plant response rating, Cupgrass, Woolly [3, 12]: 95
Plant response rating, Cupgrass, Woolly [3, 13]: 100
Plant response rating, Cupgrass, Woolly [3, 14]: 100
Plant response rating, Cupgrass, Woolly [3, 15]: 100
Plant response rating, Cupgrass, Woolly [3, 16]: 50
Plant response rating, Cupgrass, Woolly [3, 17]: 90
Plant response rating, Cupgrass, Woolly [3, 18]: 100
Plant response rating, Cupgrass, Woolly [3, 19]: 100
Plant response rating, Velvetleaf [4, 12]: 0
Plant response rating, Velvetleaf [4, 13]: 0
Plant response rating, Velvetleaf [4, 14]: 0
Plant response rating, Velvetleaf [4, 15]: 10
Plant response rating, Velvetleaf [4, 16]: 0
Plant response rating, Velvetleaf [4, 17]: 0
Plant response rating, Velvetleaf [4, 18]: 0
Plant response rating, Velvetleaf [4, 19]: 0
Plant response rating, Soybean (soybean (Glycine max); [12]): 0
Plant response rating, Soybean (soybean (Glycine max); [13]): 50
Plant response rating, Soybean (soybean (Glycine max); [14]): 65
Plant response rating, Soybean (soybean (Glycine max); [15]): 70
Plant response rating, Soybean (soybean (Glycine max); [16]): 0
Plant response rating, Soybean (soybean (Glycine max); [17]): 0
Plant response rating, Soybean (soybean (Glycine max); [18]): 0
Plant response rating, Foxtail, Green [5, 12]: 95
Plant response rating, Foxtail, Green [5, 13]: 100
Plant response rating, Foxtail, Green [5, 14]: 100
Plant response rating, Foxtail, Green [5, 15]: 100
Plant response rating, Foxtail, Green [5, 16]: 98
Plant response rating, Foxtail, Green [5, 17]: 100
Plant response rating, Foxtail, Green [5, 18]: 100
Plant response rating, Foxtail, Green [5, 19]: 100
Plant response rating, Wheat [6, 12]: 90
Plant response rating, Wheat [6, 13]: 100
Plant response rating, Wheat [6, 14]: 100
Plant response rating, Wheat [6, 15]: 100
Plant response rating, Wheat [6, 16]: 30
Plant response rating, Wheat [6, 17]: 70
Plant response rating, Wheat [6, 18]: 95
Plant response rating, Wheat [6, 19]: 98
Plant response rating, Bromegrass, Downy [7, 12]: 5
Plant response rating, Bromegrass, Downy [7, 13]: 50
Plant response rating, Bromegrass, Downy [7, 14]: 50
Plant response rating, Bromegrass, Downy [7, 16]: 40
Plant response rating, Bromegrass, Downy [7, 17]: 85
Plant response rating, Bromegrass, Downy [7, 18]: 98
Plant response rating, Bromegrass, Downy ([7]; Preemergence, 250 g ai/ha, scale 0 to 100 (0 no effect, 100 complete control)): 100
Plant response rating, Crabgrass, Large [8, 12]: 100
Plant response rating, Crabgrass, Large [8, 13]: 100
Plant response rating, Crabgrass, Large [8, 14]: 100
Plant response rating, Crabgrass, Large [8, 15]: 100
Plant response rating, Crabgrass, Large [8, 16]: 100
Plant response rating, Crabgrass, Large [8, 17]: 100
Plant response rating, Crabgrass, Large [8, 18]: 100
Plant response rating, Crabgrass, Large [8, 19]: 100
Plant response rating, Goosegrass [9, 12]: 95
Plant response rating, Goosegrass [9, 13]: 95
Plant response rating, Goosegrass [9, 14]: 100
Plant response rating, Goosegrass [9, 15]: 100
Plant response rating, Goosegrass [9, 16]: 75
Plant response rating, Goosegrass [9, 17]: 100
Plant response rating, Goosegrass [9, 18]: 100
Plant response rating, Goosegrass [9, 19]: 100
Plant response rating, Pigweed [10, 12]: 0
Plant response rating, Pigweed [10, 13]: 0
Plant response rating, Pigweed [10, 14]: 45
Plant response rating, Pigweed [10, 15]: 45
Plant response rating, Pigweed [10, 16]: 0
Plant response rating, Pigweed [10, 17]: 0
Plant response rating, Pigweed [10, 18]: 80
Plant response rating, Pigweed [10, 19]: 100
Plant response rating, Galium ([11]; 125 g ai/ha): 80
Plant response rating, Galium ([11]; 250 g ai/ha): 90
